Three substances from US8586034B2, “Cytomegalovirus disintegrin-like peptides” (priority 2004, dated 2013) can be followed below.

The test system of one experiment is HCMV. The experiment in a line: Viral payload delivery, pp65 localization. It is filed as cell-based, Human cytomegalovirus. The following applies: human fibroblasts treated, then infected with HCMV. On the procedure:
(§1) For CMV entry assays, subconfluent cells were grown on glass coverslips in 12-well plates. Integrin neutralizing antibodies or peptides were incubated in serum-free DMEM with cell monolayer for 30 minutes at 37° C. Cells were washed with phosphate-buffered saline (PBS) and incubated with HCMV strain AD169, MCMV Smith strain, or MCMV-GFP for 60 minutes at 37° C. Any non-penetrated virus was inactivated with low-pH citrate buffer (40 mM citric acid, 10 mM KCl, 135 mM NaCl, pH 3.0). The cells were incubated 20-24 hours at 37° C. in DMEM supplemented with 2% bovine calf serum (BCS). […] Experiments were performed in triplicate with a minimum of 1000 cells scored per coverslip. […] Cells were incubated 6 hours at 37° C. in DMEM supplemented with 10% BCS prior to lysis (100 mM sodium phosphate, 10 mM KCl, 1 mM magnesium sulfate, 0.1% NP-40, pH 7.4). β-galactosidase activity was measured by addition of o-nitrophenyl-β-D-galactopyranoside (ONPG) and the absorbance was monitored at 420 nm.
Next, an assay was performed that directly measured delivery of an internal virion component. […] FIG. 6B is a histogram showing the results of a series of assays wherein human fibroblasts were treated with various integrin-blocking agents, infected with HCMV, and then assayed for viral payload as measured by pp65 localization. […]

The next experiment has as its system HCMV strain AD169. As to the kind of experiment: Virus entry assay, HCMV infectivity by IE gene expression. It is filed as cell-based, Human cytomegalovirus. To be noted: NHDFs treated prior to HCMV challenge. How it is done: as §1
FIG. 2A presents the results of a series of assays wherein NHDFs were treated with HCMV gB disintegrin-like peptide, gB disintegrin-like Null peptide, RGD, or RGE peptide prior to HCMV challenge (as indicated in the FIG. 2A). Infectivity was determined by IE gene expression. […]

In the next experiment the test system is MCMV Smith strain. The experiment in a line: Virus entry assay, MCMV infectivity by e1-positive cells. It is filed as cell-based, Murine cytomegalovirus. To be noted: mouse fibroblasts (murine 3T3) treated with peptide. How it is done: as §1, with “nm. […]” for “nm.”
FIG. 4B is a histogram showing the results of an assay wherein GD25, GD25β1 and 3T3 cells were treated with β1, β3, and β1+β3 antibodies, followed by MCMV infection. As described above, infectivity was determined by scoring e1-(early protein) positive cells. […]

The subject of the next experiment is HSV-1(KOS)gL86. The experiment in a line: HSV entry assay (β-galactosidase activity). The following applies: NHDF cells treated with peptide. It is filed as cell-based, herpes simplex virus-1. On the procedure:
For CMV entry assays, subconfluent cells were grown on glass coverslips in 12-well plates. Integrin neutralizing antibodies or peptides were incubated in serum-free DMEM with cell monolayer for 30 minutes at 37° C. Cells were washed with phosphate-buffered saline (PBS) and incubated with HCMV strain AD169, MCMV Smith strain, or MCMV-GFP for 60 minutes at 37° C. Any non-penetrated virus was inactivated with low-pH citrate buffer (40 mM citric acid, 10 mM KCl, 135 mM NaCl, pH 3.0). The cells were incubated 20-24 hours at 37° C. in DMEM supplemented with 2% bovine calf serum (BCS). Immunofluorescence analysis was performed as previously described^28 with either mouse anti-IE monoclonal antibody 1203, mouse anti-pp65 monoclonal antibody or rabbit anti-MCMV e1 polyclonal, followed by detection with a fluorescein-conjugated goat anti-mouse secondary or a fluorescein-conjugated goat anti-rabbit secondary antibody. Nuclei were stained with 300 nM 4′,6-diamidino-2-phenylindole (DAPI). Experiments were performed in triplicate with a minimum of 1000 cells scored per coverslip. […] Cells were incubated 6 hours at 37° C. in DMEM supplemented with 10% BCS prior to lysis (100 mM sodium phosphate, 10 mM KCl, 1 mM magnesium sulfate, 0.1% NP-40, pH 7.4). β-galactosidase activity was measured by addition of o-nitrophenyl-β-D-galactopyranoside (ONPG) and the absorbance was monitored at 420 nm. […]

The next experiment relates to HCMV AD 169. The experiment in a line: Virus binding assay (HCMV attachment, gB ELISA). To be noted: NHDF, 4° C.; 1 mM gB disintegrin-like peptide, 1:50 DE9, α2 and α6 integrin antibodies 20 μg/mL. It is filed as cell-based, Human cytomegalovirus. On the procedure:
NHDF cells were grown in 96-well plates and treated with integrin-neutralizing antibodies, peptides, or heparin for 60 minutes at 4° C. Cells were then challenged with HCMV AD 169 at a multiplicity of infection (MOI) of 5 pfu/cell for 60 minutes at 4° C. Unbound virus was removed and cells were washed and fixed with 3% paraformaldehyde. Bound HCMV was detected with monoclonal antibody 27-78, horseradish peroxidase (HRP)-conjugated goat anti-mouse secondary antibody, and ImmunoPure TMB Substrate Kit (Pierce, Rockford, Ill.). Absorbance was measured at 450 nm. All experiments were performed in triplicate.
During virus infection, integrins are utilized as primary viral attachment receptors or as post-attachment (fusion-activating) or internalization receptors.^11 To determine at which step in the HCMV entry pathway integrins are functioning, cell binding (i.e., attachment) experiments were performed, as well as assays to measure viral payload delivery into the cytoplasm (internalization). For the binding assays, virus was bound at 4° C. to allow for stable virus binding, but to restrict fusion and internalization. The results are depicted in FIG. 6A. […] Attachment was measured by gB ELISA.

A further experiment concerns diI-labeled HCMV. It is filed as cell-based, Human cytomegalovirus. To be noted: gBDLD or BSA 320 μg/mL, soluble heparin 50 μg/mL; 24 hours post-infection.

As to “AVCSMAGGTAAIRAERNIIC (listed as Human cytomegalovirus) [gB disintegrin-like null peptide, null peptide with alanine substitutions in the disintegrin-like consensus residues, reference compound]”, the “uptake of pp65 tegument protein” value in the experiment with HCMV is listed as “not”. In addition, the “HCMV infectivity (IE gene expression)” value with HCMV strain AD169 is “able to infect”.
As for “RVCSMAQGTDLIRFERNIIC (listed as Human cytomegalovirus) [gB disintegrin-like peptide, synthetic 20 amino acid peptide encompassing the HCMV gB disintegrin-like domain]”, the MCMV infectivity result in the experiment on MCMV Smith strain is “dramatic reduction in MCMV infectivity”. In addition, in the experiment with HCMV, the “uptake of pp65 tegument protein” value is “little uptake”. Further, the “ability of HSV-1 to infect cells” value with HSV-1(KOS)gL86 was “no effect”. Besides, in the experiment on HCMV AD 169, the “HCMV attachment (gB ELISA)” value was “no effect”. The “HCMV infectivity (IE gene expression)” value with HCMV strain AD169 was “dose-dependent inhibitory response”.
Consider “heparin [soluble heparin, reference compound]”, for which the “HCMV fusion (dye transfer) and gene expression” value in the experiment with diI-labeled HCMV is reported as “blocks HCMV attachment”. Further, in the experiment with HCMV AD 169, the “HCMV attachment (gB ELISA)” value is “prevented virus attachment”.
